Data from patent publication US8821568B2, “Implant modified with non-hydroxylated vitamin D precursors” (Numat Biomedical S.L., priority 2008, dated 2014).
“Also recorded” adds a separate entry of the source.

Tests used:
MC3T3-E1 cells [1] = assay: ELISA of 25-D3 released to the culture media, coated titanium implants; type: cell-based, mouse; details: Ti implants; 0.2 nmols; 48 h; UV exposure 15 minutes; vs ethanol-treated Ti samples
Procedure: (§1) To test the effect of the surface modification, 96-well plates were used. Ti disks were placed into the wells and treatments and UV-activation were performed over there. Cells grown onto untreated polystyrene tissue culture plastic (TCP) were added as a control for all the experiments. Cells were seeded at a density of 30,000 cells/cm^2 and they were maintained in α-MEM supplemented with 10% FCS and antibiotics. Culture media was collected after 48 hours, to test cytotoxicity and the production of the hydroxylated form of vitamin D, 25-D3. Cells were harvested after two days of culture using Trizol reagent (Roche Diagnostics, Mannheim, Germany), to analyze gene expression of several osteoblast differentiation markers and enzymes involved in vitamin D synthesis using real-time RT-PCR. On the other hand, MC3T3-E1 cells were harvested after 21 days to measure calcium content and ALP activity in the cell monolayer.
25-D3 released to the culture media after 2 days of treatment were analyzed by enzyme-linked immunosorbent assay (ELISA). Aliquots from the culture media were centrifuged at 1800 rpm for 5 minutes at 4° C. and supernatants were used for 25-D3 and determination following instructions described by the manufacturer (Immunodiagnostic Systems Ltd, Boldon, Tyne and Wear, UK).

MC3T3-E1 cells [2] = assay: Real-time RT-PCR of osteoblast differentiation markers, coated titanium implants; type: cell-based, mouse; details: Ti implants, 48 h
Procedure: as §1
RNA was isolated from cells using a monophasic solution of phenol and guanidine thiocyanate (Trizol, Roche Diagnostics, Mannheim, Germany) according to the manufacturer's protocol. RNA was quantified at 260 nm using a Nanodrop spectrophotometer (NanoDrop Technologies, Wilmington, Del., USA).
Total RNA previously isolated was reverse-transcribed to cDNA using High Capacity RNA to cDNA kit (Applied Biosystems, Foster City, Calif.) according to the protocol of the supplier. The same amount of total RNA from each sample was converted into cDNA. Each cDNA was diluted ¼ and aliquots were stored at −20° C. until the PCR reactions were carried out.
Real-time RT-PCR was performed for two reference genes: 18S ribosomal RNA (18S rRNA), glyceraldehyde-3-phosphate dehydrogenase (GAPDH); and eleven target genes: alkaline phosphathase (ALP), Interleukin 6 (IL-6), Collagen (Coll-1), Osteocalcin (OC), Bone Morphogenetic Protein 2 (BMP-2), Osterix (Osx), Receptor activator of nuclear factor kappa-B ligand (RANKL), Osteoprogesterin (OPG) and genes involved in vitamin D synthesis such as Vitamin D3 25-hydroxylase (CYP27A1) and 25 hydroxyvitamin D3-1-alpha hydroxylase (CYP27B1). Real-time PCR were performed in the Lightcycler 480® (Roche Diagnostics, Germany). Each reaction contained 5 μl of LightCycler-FastStart DNA Master^PLUS SYBR Green I (Roche Diagnostics, Mannheim, Germany), 0.5 μM of the sense and antisense specific primers (Table 1) and 3 μl of the cDNA dilution in a final volume of 10 μl. The normal amplification program consisted of a preincubation step for denaturation of the template cDNA (10 min 95° C.), followed by 45 cycles consisting of a denaturation step (10 s 95° C.), an annealing step (10 s 60° C., except for ALP that was 10 s at 65° C., OSX with 10 s at 68° C.) and an extension step (10 s 72° C.). After each cycle, fluorescence was measured at 72° C. Every run included a negative control without cDNA template. To confirm amplification specificity, PCR products were subjected to a melting curve analysis on the LightCycler and subsequently 2% agarose/TAE gel electrophoresis, Tm and amplicon size, respectively.
To allow relative quantification after PCR, real-time efficiencies were calculated from the given slopes in the LightCycler 480 software (Roche Diagnostics, Mannheim, Germany) using serial dilutions. Relative quantification after PCR was calculated by normalizing target gene concentration in each sample by the concentration mean of the two reference genes in given sample using the Advanced relative quantification method provided by the LightCycler 480 analysis software.

[3] = HPLC quantification of 7-DHC and vitamin D3 on coated substrates before and after UV irradiation; type: physicochemical; details: for m7-DHC (%): 100* m7-DHC/m7-DHC^0; for ηD3 (Vit D3 product yield): moles D3 after vs moles 7-DHC before irradiation
Procedure: Substrates (polystyrene, 96 well plate; or titanium, polished titanium disks, 6.2 mm diameter, 2 mm height, inserted in a 96 well plate) were covered with 0.2 nmol of 7-DHC and Vitamin E (7-DHC: VitE=20:1, m:m) by dropping 10 μl of a 7-DHC/VitE solution in absolute ethanol. After leaving the solvent to evaporate for 15 min, samples were UV irradiated for 15 min at 302 nm. The amounts of 7-DHC and D3 present in the surfaces were quantified by HPLC. Results were compared with substrates without Vit E and with non-irradiated surfaces. Pure ethanol was used as control for all groups. Sunlight exposure was avoided for all surfaces.
The coating of each surface was extracted by adding 100 μl of ‘methanol/acetonitrile/tetrahydrofurane/water’ (67:16:2:15, v:v) to each well and shaking the plate for 2 min at 20 rpm. The content of three replicate wells was mixed to give a sample of ≈300 μl. An aliquot of 100 μl of the sample was injected in the HPLC system. Two replicate samples were prepared and analyzed for each group.
The analysis were carried out using a Waters liquid chromatographic system (Milford, Mass., USA), equipped with a refrigerated automatic injector WISP700 and a 600 pump system, connected to a Waters 996 photodiode array (PDA) detector. The software Empower was used for instrument control and data analysis. Detection was carried out at 282 nm.
A Nova Pak C18 column (Waters) was used to separate sample components before detection. The column temperature was set to 30° C. Two solvents, A: ‘methanol/acetonitrile/tetrahydrofurane/water (67:16:2:15, v:v), and B: ‘methanol/acetonitrile/tetrahydrofurane’ (75:20:5, v:v) were used in gradient elution mode as the mobile phase. Solvents A and B were vacuum-filtered through a Nylon membrane (0.45 μm pore diameter) and degassed before use. The mobile phase flow rate was 1 ml·min^−1. The binary gradient used was as follows: from 5% B to 90% B in three minutes, held for 9.5 min at 90% B, from 90% B to 5% B in one minute and equilibrated between injections at the initial conditions for 5 min (total run time=15 min+5 min equilibration between injections).
Quantification was performed by integration of the peak area of the corresponding analyte and interpolation of the peak area in 7-DHC or Vit D3 standard curves.

[4] = Polystyrene, irradiated, UV 302 nm 15 min
[5] = Titanium, irradiated, UV 302 nm 15 min

Structure (SMILES): CC(C)CCC[C@@H](C)[C@H]1CC[C@H]2C3=CC=C4C[C@@H](O)CC[C@]4(C)[C@H]3CC[C@]12C [7-DHC, 7-dehydrocholesterol]
- 25-D3 secretion to the cell culture media (MC3T3-E1 cells [1]): increased 25-hydroxyvitamin D3 (25-D3) production
- RANKL mRNA expression (MC3T3-E1 cells [2]; 2×10^−2 nmols and 0.2 nmols, UV 15 minutes vs UV-untreated): significant decrease
- RANKL mRNA levels (MC3T3-E1 cells [2]; 10 minutes UV-exposed, compared to ethanol): statistical significant increase
- OPG mRNA levels (MC3T3-E1 cells [2]; 30 min UV-exposed): decrease
- RANKL mRNA levels (MC3T3-E1 cells [2]; 30 minutes UV-exposed): significant decrease
- ALP mRNA levels (MC3T3-E1 cells [2]; UV irradiated vs ethanol and UV-treated groups, significant at 30 minutes): higher ALP mRNA levels
- OC mRNA levels (MC3T3-E1 cells [2]; UV-exposed for 15 min): tendency to increased OC mRNA levels
- RANKL gene expression (MC3T3-E1 cells [2]; all UV-treated groups (2×10^−2, 0.2, 2 nmols; 15 minutes) compared to control): Statistical significances; also recorded: significantly reduced
- OSX mRNA levels (MC3T3-E1 cells [2]; between all the groups, only significant at 10 minutes of UV exposure): very similar
- BMP-2 mRNA levels (MC3T3-E1 cells [2]; when exposed to UV): No statistical differences
- IL-6 mRNA levels (MC3T3-E1 cells [2]; when exposed to UV): No statistical differences
- Collagen type-1 gene expression (MC3T3-E1 cells [2]; with UV exposure time, significant at 15 and 30 minutes): trend to decrease
- m7-DHC [3, 4]: 29.2 ± 2.0 ng/well
- mD3 [3, 4]: 11.8 ± 0.4 ng/well
- m7-DHC (%) [3, 4]: 29%
- ηD3 (Vit D3 product yield) [3, 4]: 13.1 ± 0.4%
- m7-DHC ([3]; Polystyrene, non irradiated): 90.1 ± 2.9 ng/well
- m7-DHC (%) ([3]; Polystyrene, non irradiated): 88%
- m7-DHC [3, 5]: 42.1 ± 3.4 ng/well
- mD3 [3, 5]: 16.4 ± 0.7 ng/well
- m7-DHC (%) [3, 5]: 39%
- ηD3 (Vit D3 product yield) [3, 5]: 16.4 ± 0.7%
- m7-DHC ([3]; Titanium, non irradiated): 99.9 ± 3.0 ng/well
- m7-DHC (%) ([3]; Titanium, non irradiated): 92%
